Measured values taken from US9090651B2, “Helix 12 directed pharmaceutical products” (ENDORECHERCHE, INC., priority 2004, dated 2015).
Where “and” joins values, the source holds several entries; their conditions need not be identical. Equal entries are not always repeated. Where two headings read alike, the source gives them in different places.

Experiments:
[1] = tested on: Shionogi mouse mammary carcinoma cells; test: Androgenic/antiandrogenic activity on DHT-stimulated Shionogi cell growth; format: cell-based
Human Androgen Receptor = biological target: T1, Human Androgen Receptor (Homo sapiens, UniProt P10275); test: Androgen receptor binding assay (hydroxylapatite, [3H]R1881, cytosol of transfected HEK-293 cells); settings: for Androgen Receptor Binding (%) Human RBA R1881 = 100: % RBA=100×IC50 R1881/IC50 compound, transfected cells
T1 sequence (P10275 1-920): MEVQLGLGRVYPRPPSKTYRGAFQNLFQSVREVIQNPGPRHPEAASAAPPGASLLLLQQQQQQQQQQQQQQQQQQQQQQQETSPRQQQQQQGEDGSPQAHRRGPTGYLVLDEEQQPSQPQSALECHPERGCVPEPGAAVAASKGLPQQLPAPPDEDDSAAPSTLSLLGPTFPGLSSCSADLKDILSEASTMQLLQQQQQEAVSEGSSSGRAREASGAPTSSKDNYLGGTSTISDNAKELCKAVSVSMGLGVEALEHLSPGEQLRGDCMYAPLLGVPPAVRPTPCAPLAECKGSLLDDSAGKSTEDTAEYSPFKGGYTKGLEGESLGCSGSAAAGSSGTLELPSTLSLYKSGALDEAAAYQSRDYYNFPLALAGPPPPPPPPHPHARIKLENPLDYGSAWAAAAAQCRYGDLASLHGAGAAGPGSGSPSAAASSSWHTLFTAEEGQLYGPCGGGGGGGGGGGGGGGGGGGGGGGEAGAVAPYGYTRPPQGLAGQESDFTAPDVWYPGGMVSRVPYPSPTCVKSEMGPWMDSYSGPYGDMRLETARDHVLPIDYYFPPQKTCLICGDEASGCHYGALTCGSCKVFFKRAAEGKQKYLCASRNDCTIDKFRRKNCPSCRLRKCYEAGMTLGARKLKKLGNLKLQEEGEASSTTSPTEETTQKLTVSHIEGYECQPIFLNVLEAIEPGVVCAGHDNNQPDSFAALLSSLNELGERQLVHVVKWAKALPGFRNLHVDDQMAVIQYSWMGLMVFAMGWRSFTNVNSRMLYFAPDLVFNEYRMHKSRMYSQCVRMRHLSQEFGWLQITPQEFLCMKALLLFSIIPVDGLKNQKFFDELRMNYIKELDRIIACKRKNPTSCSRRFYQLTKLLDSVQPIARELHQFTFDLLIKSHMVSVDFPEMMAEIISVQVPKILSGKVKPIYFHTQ

[2] = Mus musculus, read-out: Shionogi Antiandrogenic activity IC50 (nM), inhibition of DHT-stimulated Shionogi cell number
[3] = read-out: Shionogi Antiandrogenic activity IC50, inhibition of DHT-stimulated Shionogi cell number

Row | SMILES | IC50 [1, 2] | Androgen Receptor Binding (%) Human RBA R1881 = 100 (Human Androgen Receptor) | IC50 [1, 3] | IC50 ([1]; Mus musculus, inhibition of DHT-stimulated Shionogi cell number, read-out: Shionogi Antiandrogenic activity IC50) | relative binding affinity to the wild-type hAR (Human Androgen Receptor)
1 | CCC(NC(C)C)c1cccc(OCC[C@]23CCC4C(CCC5=CC(=O)CC[C@@]54C)C2CC[C@@H]3O)c1 (stereo partly shown) [EM-6960] | < 0.1 nM | 147% |  |  | 
2 | CCCC(NC1CCCCC1)c1cccc(OCC[C@]23CCC4C(CCC5CC(=O)CC[C@@]54C)C2CC[C@@H]3O)c1 (stereo partly shown) [EM-6737] | 1.6 nM | 292.5% |  |  | 
3 | CC(C)CCN1CCCCC1c1cccc(OCC[C@]23CCC4C(CCC5CC(=O)CC[C@@]54C)C2CC[C@@H]3O)c1 (stereo partly shown) [EM-6492] | 9.6 nM | 68% and 115% | 7.1 nM |  | 
4 | CCC(Nc1ccncc1)c1cccc(OCC[C@]23CCC4C(CCC5CC(=O)CC[C@@]54C)C2CCC3O)c1 (stereo partly shown) [EM-6857] | 63 nM | 5% |  |  | 
5 | CCCC(c1cccc(OCC[C@]23CCC4C(CCC5CC(=O)CC[C@@]54C)C2CC[C@@H]3O)c1)N(C)C(CC)CC (stereo partly shown) [EM-6572] |  | 744% |  |  | 
6 | CCCCC(NC1CCCCC1)c1cccc(OCC[C@]23CCC4C(CCC5CC(=O)CC[C@@]54C)C2CCC3O)c1 (stereo partly shown) [EM-6895] | 4.2 nM | 115.5% |  |  | 
7 | CCCN(Cc1cccc(OCC[C@]23CCC4C(CCC5CC(=O)CC[C@@]54C)C2CC[C@@H]3O)c1)C1CCCC1 (stereo partly shown) [EM-6567] | 5.5 nM | 126% |  |  | 
8 | CCC(NC1CCOCC1)c1cccc(OCC[C@]23CCC4C(CCC5Cc6nocc6C[C@@]54C)C2CCC3O)c1 (stereo partly shown) [EM-6908] | 7.4 nM | 13% |  |  | 
9 | CCCC(NC1CCCC1)c1cccc(OCC[C@]23CCC4C(CCC5CC(=O)CC[C@@]54C)C2CC[C@@H]3O)c1 (stereo partly shown) [EM-6738] | 1.7 nM | 174.2% |  |  | 
10 | CCC(CC)NCc1ccc(F)c(OCC[C@]23CCC4C(CCC5CC(=O)CC[C@@]54C)C2CC[C@@H]3OC)c1 (stereo partly shown) [EM-6406] | 7.8 nM | 226% |  |  | 
11 | CCC1COCC(c2cccc(OCC[C@]34CCC5C(CCC6CC(=O)CC[C@@]65C)C3CCC4O)c2)N1 (stereo partly shown) [EM-7111] | 13 nM | 39% |  |  | 
12 | CC(C)(C)CNCc1cccc(OCC[C@]23CCC4C(CCC5CC(=O)CC[C@@]54C)C2CC[C@@H]3O)c1 (stereo partly shown) [EM-6335] |  | 106% and 86% |  |  | 
13 | CC(C)(c1cccc(OCC[C@]23CCC4C(CCC5CC(=O)CC[C@@]54C)C2CC[C@@H]3O)c1)N1CCCCC1 (stereo partly shown) [EM-6740] | 15 nM | 42.5% |  |  | 
14 | COCC(NC1CCCCC1)c1cccc(OCC[C@]23CCC4C(CCC5CC(=O)CC[C@@]54C)C2CCC3O)c1 (stereo partly shown) [EM-6972] | 1.2 nM | 151% |  |  | 
15 | CCC(NC(C)C)c1cc(OCC[C@]23CCC4C(CCC5=CC(=O)CC[C@@]54C)C2CCC3O)ccn1 (stereo partly shown) [EM-7167] |  | 42% |  |  | 
16 | CC(NC1CCCC1)c1cccc(OCC[C@]23CCC4C(CCC5CC(=O)CC[C@@]54C)C2CC[C@@H]3O)c1 (stereo partly shown) [EM-6536] |  | 87% |  |  | 
17 | CCC(NC(C)CC(F)(F)F)c1cccc(OCC[C@]23CCC4C(CCC5CC(=O)CC[C@@]54C)C2CC[C@@H]3O)c1 (stereo partly shown) [EM-6700] | 49.9 nM | 670% |  |  | 
18 | CN(C)CC(NC1CCCCC1)c1cccc(OCC[C@]23CCC4C(CCC5CC(=O)CC[C@@]54C)C2CCC3O)c1 (stereo partly shown) [EM-7131] | 35 nM | 125.7% |  |  | 
19 | CCCN(C1CC1)C(CC)c1cccc(OCC[C@]23CCC4C(CCC5CC(=O)CC[C@@]54C)C2CC[C@@H]3O)c1 (stereo partly shown) [EM-6735] | 3.2 nM | 2385% |  |  | 
20 | CCC(NC1CCS(=O)(=O)CC1)c1cccc(OCC[C@]23CCC4C(CCC5CC(=O)CC[C@@]54C)C2CCC3O)c1 (stereo partly shown) [EM-6836] | 2.4 nM | 62% |  |  | 

Row | SMILES | IC50 [1, 2] | Androgen Receptor Binding (%) Human RBA R1881 = 100 (Human Androgen Receptor) | IC50 [1, 3] | IC50 ([1]; Mus musculus, inhibition of DHT-stimulated Shionogi cell number, read-out: Shionogi Antiandrogenic activity IC50) | relative binding affinity to the wild-type hAR (Human Androgen Receptor)
21 | C[C@]12CCC(=O)CC1CCC1C2CC[C@]2(CCOc3cccc(CNc4ccncc4)c3)C(O)CCC12 (stereo partly shown) [EM-6856] | 32 nM | 6% |  |  | 
22 | CO[C@H]1CCC2C3CCC4CC(=NO)CC[C@]4(C)C3CC[C@@]21CCOc1cccc(C(C)NC2CCCCC2)c1 (stereo partly shown) [EM-6533] | 8.6 nM | 10% |  |  | 
23 | CCC[C@]1(O)CCC2C3CCC4CC(=O)CC[C@]4(C)C3CC[C@@]21CCOc1cccc(C(CC)NC(CC)CC)c1 (stereo partly shown) [EM-6522] |  | 41% |  |  | 
24 | CC1CCC(NCc2cccc(OCC[C@]34CCC5C(CCC6CC(=O)CC[C@@]65C)C3CC[C@@H]4O)c2)CC1 (stereo partly shown) [EM-6423] | 5 nM | 43% |  |  | 
25 | CN(C)CC(NC1CCCCC1)c1cncc(OCC[C@]23CCC4C(CCC5=CC(=O)CC[C@@]54C)C2CCC3O)c1 (stereo partly shown) [EM-7221] | 11 nM | 20% |  |  | 
26 | O=C1C=C2CCC3C(CC[C@@]4(CCOc5cccc(CNC6CCCCC6)c5)C3CC[C@@H]4O)C2CC1 (stereo partly shown) [EM-6577] | 57 nM | 3.4% |  |  | 
27 | CCCC(NC1CCCC1)c1cccc(OCC[C@]23CCC4C(CCC5CC(=O)CC[C@@]54C)C2CCC3=O)c1 (stereo partly shown) [EM-6739] | 2.4 nM | 132.5% |  |  | 
28 | C[C@]12CCC(=O)CC1CCC1C2CC[C@@]2(CCOc3cccc(CNC4CC5CCC4C5)c3)C1CC[C@@H]2O (stereo partly shown) [EM-6471] |  | 13% | 6.4 nM and 9.6 nM |  | 
29 | CCC(NC1CCCC1)c1cccc(OCC[C@]23CCC4C(CCC5CC(=O)CC[C@@]54C)C2CC[C@@H]3O)c1 (stereo partly shown) [EM-6537] | 0.4 nM | 88% | 0.3 nM |  | 
30 | CCCC(NC(CC)CC)c1cccc(OCC[C@]23CCC4C(CCC5CCOC[C@@]54C)C2CCC3O)c1 (stereo partly shown) [EM-6876] |  | 44.4% |  | 16 nM | 
31 | CCC(CC)NC(CC)c1ccc(F)c(OCC[C@]23CCC4C(CCC5CC(=O)CC[C@@]54C)C2CC[C@@H]3O)c1 (stereo partly shown) [EM-6449] | 0.9 nM | 103% |  |  | 
32 | CCC(CC)CNC(CC)(CC)c1cccc(OCC[C@]23CCC4C(CCC5CC(=O)CC[C@@]54C)C2CCC3O)c1 (stereo partly shown) [EM-7001] | 17 nM | 1981% |  |  | 
33 | CCCCS(=O)(=O)Cc1cccc(OCC[C@]23CCC4C5CCC(=O)C=C5CCC4C2CC[C@@H]3O)c1 (stereo partly shown) [EM-6861] | 32 nM | 3.0% |  |  | 
34 | C#C[C@]1(O)CCC2C3CCC4CC(=O)CC[C@]4(C)C3CC[C@@]21CCOc1cccc(C(C)NC2CCCCC2)c1 (stereo partly shown) [EM-6427] | 4.5 nM | 40% |  |  | 
35 | CC(C)(O)C(=O)Nc1ccc([N+](=O)[O-])c(C(F)(F)F)c1 [OH-FLU, hydroxyflutamide, reference compound] |  | 0.29% and 0.1% |  |  | 
36 | C[C@]1(O)CC[C@H]2[C@@H]3CCC4=CC(=O)CCC4=C3C=C[C@@]21C [R1881, reference compound] |  |  |  |  | 100
37 | CCC(NC(C)C)c1cc(OCC[C@]23CCC4C(CCC5CC(=O)CC[C@@]54C)C2CCC3O)ccn1 (stereo partly shown) [EM-7170] |  | 120.6% |  |  | 
38 | C[C@H](NC1CCCCC1)c1cccc(OCC[C@]23CCC4C(CCC5CC(=O)CC[C@@]54C)C2CC[C@@H]3O)c1 (stereo partly shown) [EM-6271] |  | 196% and 178% |  |  | 
39 | CCC(CC)NC(CC)c1cccc(OCC[C@]23CCC4C(CCC5=CC(=O)CC[C@@]54C)C2CC[C@@H]3O)c1 (stereo partly shown) [EM-6526] |  | 59% |  |  | 
